Assays:
in vivo = conditions: mouse, in vivo, po
Source text: (§1) Acute toxicity was examined by administering perorally an aqueous solution of each Specimen to female JCL-ICR mouse of 5 to 6 weeks after birth. As the Specimen, trans-4-[N-(3',4'-dihydroxybenzoyl)aminomethyl]cyclohexane-1-carboxylic acid, 4-[N-(3',4'-dihydroxybenzoyl)amino]benzoic acid and 6-[N-(3',4'-dihydroxybenzoyl)amino]caproic acid were used.

female JCL-ICR mouse = test: Acute toxicity; conditions: peroral, aqueous solution, female JCL-ICR mouse 5 to 6 weeks
Source text: as §1

[1] = test system: platelet aggregation (rabbit platelet rich plasma); test: Inhibitory effect on platelet aggregation (induced by sodium arachidonate); assay type: cell-based; conditions: Oryctolagus cuniculus, average value, 1.5 mM of each Specimen, rabbit PRP, preincubated 37° C. 5 min, read-out: Inhibition rate of platelet aggregation
Protocol: Rabbit platelet rich plasma (PRP) was used for Aggregation Tests. PRP was prepared by centrifugation of blood collected from the ear vein of Rabbit and diluted into number-concentration 300,000/μl with platelet poor plasma. Platelet aggregation was induced by Sodium Arachidonate and monitored (measured) with a four channel platelet aggregation Tracer PAT-4A (Niko Bioscience Co., Japan). Aggregation Tracer tube containing 230 μl PRP was preincubated at 37° C. for 5 min with each Specimen.

[2] = test system: polynuclear leukocyte migration; test: Inhibitory effect on polynuclear leukocyte migration (Granuloma CMC pouch method); assay type: in vivo, rat (male, Donyru); conditions: average value; 100 mg p.o./kg body weight; 6 hours after the administration; rat CMC pouch
Protocol: After shearing the rat on the dorsum about 5 cm in diameter, 5 ml of air was hypodermically injected into the site to form a pouch. After 24 hours, 5 ml of aqueous 2% (w/v) solution of CMC sodium salt at 37° C. was injected into the pouch, and at the same time an aqueous solution of each Specimen was administered perorally to the rat.
After the injection of CMC, the liquid in the pouch was collected as the time passed by in an amount of 0.5 ml and stained. Then the number of polynuclear leukocyte migrated into the pouch was counted.

adjuvant arthritis = test: Prophylactic effect on adjuvant arthritis; assay type: in vivo, rat (female JCL-SD); conditions: average value of prophylactic rate; 100 mg p.o./kg/day for continuous 14 days; rat
Protocol: Freund's complete adjuvant (0.6 mg/0.1 ml) was inoculated into the right hind paw of the etherized rat. After palinesthesia, each specimen was administered perorally once a day for 14 continuous days.

## O=C(O)CCCCCNC(=O)c1ccc(O)c(O)c1 [6-[N-(3',4'-dihydroxybenzoyl)amino]caproic acid]
In vivo
  LD50: > 3000 mg/kg
Female JCL-ICR mouse
  abnormality on the mouse: no abnormality on the mouse was found

## O=C(NC[C@H]1CC[C@H](C(=O)O)CC1)c1ccccc1O.[Na] [Sodium trans-4-(N-salicyloyl-aminomethyl)cyclohexane-1-carboxylic acid, reference compound]
[1]
  inhibition at 1500 µM: 10%
[2]
  Inhibition rate of polynuclear leukocyte migration: 5%
Adjuvant arthritis
  Prophylactic effect on adjuvant arthritis: 5%

## O=C(NC[C@H]1CC[C@H](C(=O)O)CC1)c1ccc(O)c(O)c1 [trans-4-[N-(3',4'-dihydroxybenzoyl)aminomethyl]cyclohexane-1-carboxylic acid]
[1]
  inhibition at 1500 µM: 100%
[2]
  Inhibition rate of polynuclear leukocyte migration: 35%
Adjuvant arthritis
  Prophylactic effect on adjuvant arthritis: 30%
In vivo
  LD50: > 3000 mg/kg
Female JCL-ICR mouse
  abnormality on the mouse: no abnormality on the mouse was found

## O=C(O)c1ccc(NC(=O)c2ccc(O)c(O)c2)cc1 [4-[N-(3',4'-dihydroxybenzoyl)amino]benzoic acid]
In vivo
  LD50: > 3000 mg/kg
Female JCL-ICR mouse
  abnormality on the mouse: no abnormality on the mouse was found

Source: US4409240A, “Derivatives of dihydroxybenzoic acid and pharmaceutical composition thereof” (Kureha Kagaku Kogyo Kabushiki Kaisha, priority 1981, dated 1983)
